In patent US20130040882A1, “USE OF FIBROBLAST GROWTH FACTOR FRAGMENTS” (NOVARTIS AG, priority 2003, published 2013):

Test system: transcript levels in tissues (GH/IGF and glucagon/insulin axes, SSTR signalling)
Assay type: in vivo, cynomolgus monkeys
[1] = RNA expression fold change, pituitary

“cyclo[4-(NH2—C2H4—NH—CO—O)Pro-Phg-DTrp-Lys-Tyr(4-Bzl)-Phe] [SOM230]” was tested, and the “Core-binding factor, runt domain, α subunit 2; translocated to, 1; cyclin D-related ↑” value [1] was “D-related ↑ x3”, the “Cyclin D3 ↑” value [1] was “Cyclin D3 ↑ x2.5” and the “Cyclin F ↓” value [1] was “Cyclin F ↓ x2”. The “Dual specificity phosphatase 8 ↓” value [1] was “phosphatase 8 ↓ x3”, the “EGFRBP 2 ↓” value [1] was “EGFRBP 2 ↓ x1.5” and the “FGFR 2 ↓” value [1] was “FGFR 2 ↓ x2”. The “Fms-related tyrosine kinase 1 (VEGF/vascular permeability factor receptor) ↓” value [1] was “receptor) ↓ x1.5”, the “Forkhead box H1 ↑” value [1] was “Forkhead box H1↑ x2” and the “Forkhead box O3A ↓” value [1] was “↓ x1.5”. For the same substance, the “G protein-coupled receptor, family C, group 5, member B ↑” value [1] was 5, member B ↑ x2, the “G-protein coupled receptor 9 ↑” value [1] was “receptor 9 ↑ x2.5” and the “G-protein coupled receptor 49 ↓” value [1] was “receptor 49 ↓ x2”. The “GABA-B R 1, isoform a precursor ↑” value [1] was “↑ x1.5”, the “GFR bound protein 10 ↑” value [1] was “↑ x1.5” and the “GLUR 2, precursor ↑” value [1] was “x1.5”. The “GTP-binding protein 11 ↑” value [1] was “↑ x2.5”, the “GTP-binding protein (G protein), q polypeptide ↓” value [1] was “↓ x2.5” and the “GTP-binding protein like-1 ↓” value [1] was “like-1 ↓ x3”. For the same substance, the “Gastrin receptor ↓” value [1] was “Gastrin receptor ↓ x2”, the “Glucagon receptor ↑” value [1] was “Glucagon receptor ↑ x7” and the “IFN stimulated gene ↑” value [1] was “↑ x3.5”. For the same substance, the “IFNR2 (α, β and ω) ↓” value [1] was “↓ x2.5”, the “IFNγ-inducible protein 30 (IP30) ↑” value [1] was 30 (IP30) ↑ x1.5 and the “IGF-2 ↓” value [1] was “IGF-2 ↓ x1.5”. For the same substance, the “IGFBP, acid labile subunit ↑” value [1] was “subunit ↑ x3.5”, the “IP3 receptor, type 1 ↑” value [1] was “↑ x1.5” and the “IP-4-phosphatase, type 1, isoform b ↓” value [1] was 1, isoform b ↓ x2. For the same substance, the “JAK 1 ↑” value [1] was “JAK 1 ↑ x2”, the “K+ channel, subfamily K, member 3 (TASK) ↓” value [1] was “↓ x4” and the “K+ voltage-gated channel, Shab-related subfamily, member 1 ↓” value [1] was “subfamily, member 1 ↓ x2”. For the same substance, the “MAPKKK5 ↑” value [1] was “MAPKKK5 ↑ x2”, the “Neuroblastoma-amplified protein ↑” value [1] was “↑ x1.5” and the “PDGFβ ↓” value [1] was “PDGFβ ↓ x2”. For the same substance, the “PI transfer protein, β ↓” value [1] was “↓ x2.5”, the “PI-3-kinase, catalytic, α polypeptide ↓” value [1] was “polypeptide ↓ x3” and the “PI-3-kinase, catalytic, δ polypeptide ↓” value [1] was “↓ x2”. The “PKC inhibitor ↑” value [1] was “PKC inhibitor ↑ x2”, the “PLCγ 1 ↓” value [1] was “PLCγ 1 ↓ x1.5” and the “PP 1, regulatory (inhibitor) subunit 5 ↑” value [1] was “↑ x3.5”. The “PTP, receptor type, T ↑” value [1] was “↑ x2”, the “Phosphatase and tensin homolog (mutated in multiple advanced cancers 1) ↓” value [1] was 1) ↓ x3.5 and the “Programmed cell death 6 ↑” value [1] was “↑ x1.5”. The “Putative Ca++ transporting ATPase ↑” value [1] was “transporting ATPase ↑ x2”, the “RAB 5C, member RAS oncogene family ↑” value [1] was “oncogene family ↑ x3” and the “Rab3 GTPase-activating protein, non catalytic subunit ↓” value [1] was “subunit ↓ x2”. For the same substance, the “Rab geranylgeranyltransferase, α subunit ↓” value [1] was “α subunit ↓ x1.5”, the “Rab geranyltransferase, β subunit ↑” value [1] was “β subunit ↑ x2” and the “Receptor (calcitonin) activity modifying protein 2 precursor ↑” value [1] was 2 precursor ↑ x3.5. The “Receptor tyrosine kinase-like orphan receptor 2 ↑” value [1] was “receptor 2 ↑ x2”, the “Regulator of G-protein signalling 9 ↑” value [1] was “↑ x2” and the “S-phase response (cyclin-related) ↑” value [1] was “(cyclin-related) ↑ x2”. For the same substance, the “SHB adaptor protein (a Src homology 2 protein) ↓” value [1] was “↓ x2.5”, the “SSTR3 ↑” value [1] was “SSTR3 ↑ x3” and the “STAT 1, 91kδ ↓” value [1] was “STAT 1, 91kδ ↓ x2”. The “Soluble adenylyl cyclase ↓” value [1] was “↓ x2”, the “TNFR subfamily, member 14; herpesvirus entry mediator ↓” value [1] was “entry mediator ↓ x2.5” and the “TNFR-associated factor 2 ↓” value [1] was 2 ↓ x4. The “Thrombospondin-p50 ↓” value [1] was “↓ x2”, the “Thyroid transcription factor 1 ↑” value [1] was “factor 1 ↑ x2.5” and the “VEGF B ↑” value [1] was “VEGF B ↑ x1.5”. For the same substance, the “Extra spindle poles, S. cerevisiae, homolog of ↓” value (cynomolgus monkey, in vivo) was “↓ x2.5”, the “Acetylserotonin O-methyl transferase-like expression ↓ (fold change)” value (kidney) was “transferase-like ↓ x3” and the “Adrenomedullin expression ↑ (fold change)” value (kidney) was “x1.5”. For the same substance, the “Angiotensin receptor 1B expression ↓ (fold change)” value (kidney) was 1B ↓ x1.5, the “Arginine vasopressin (neurophysin II, antidiuretic hormone, diabete insipidus, neurohypophyseal) expression ↑ (fold change)” value (kidney) was “↑ x2” and the “CDC37 (cell division cycle 37, S. cerevisiae, homolog) expression ↑ (fold change)” value (kidney) was “homolog) ↑ x1.5”. For the same substance, the “CSF-1 receptor, formerly Mc Donough feline sarcoma viral (v-fms) oncogene homolog expression ↑ (fold change)” value (kidney) was “homolog ↑ x2.5”, the “Ca++ channel, voltage-dependent, α 1H subunit expression ↑ (fold change)” value (kidney) was “α 1H subunit ↑ x2” and the “Calcium/calmodulin-dependent protein kinase kinase 2, β expression ↑ (fold change)” value (kidney) was “↑ x1.5”. For the same substance, the “Calmodulin 3 (phosphorylase kinase, δ) expression ↓ (fold change)” value (kidney) was “kinase, δ) ↓ x1.5”, the “Cdk 5, regulatory subunit 2 (p39) expression ↑ (fold change)” value (kidney) was “↑ x1.5” and the “Cdki 1A (p21, Cip 1) expression ↑ (fold change)” value (kidney) was “Cip 1) ↑ x5”. The “Corticotropin releasing hormone receptor type 2 beta isoform expression ↑ (fold change)” value (kidney) was “isoform ↑ x1.5”, the “Death effector domain-containing expression ↓ (fold change)” value (kidney) was “↓ x3.5” and the “Dopamine receptor D2 expression ↑ (fold change)” value (kidney) was “receptor D2 ↑ x4.5”. The “Fas/Apo-1/CD95 expression ↑ (fold change)” value (kidney) was “↑ x1.5”, the “GABA (A) receptor, γ2 precursor expression ↑ (fold change)” value (kidney) was “precursor ↑ x2” and the “GFR-bound protein 7 expression ↑ (fold change)” value (kidney) was “protein 7 ↑ x2”. The “GFR-bound protein 14 expression ↑ (fold change)” value (kidney) was “protein 14 ↑ x2”, the “Gene expression (AvgDiff): IGF-1” value (kidney) was 25 and the “Gene expression (AvgDiff): IGF-2” value (kidney) was 49. The “Gene expression (AvgDiff): IGFBP2” value (kidney) was 563, the “Gene expression (AvgDiff): IR” value (kidney) was 196 and the “Gene expression (AvgDiff): SSTR2” value (kidney) was 126. For the same substance, the “Gene expression (AvgDiff): SSTR3” value (kidney) was 82, the “Glucocorticoid receptor DNA binding factor 1 expression ↓ (fold change)” value (kidney) was “↓ x4.5” and the “Glutamate receptor, metabotropic 2 precursor expression ↓ (fold change)” value (kidney) was “precursor ↓ x3”. For the same substance, the “Growth arrest-specific 6 expression ↑ (fold change)” value (kidney) was “specific 6 ↑ x1.5”, the “IGF-1 expression ↓ (fold change)” value (kidney) was “IGF-1 ↓ x2.5” and the “IGF-2 expression ↓ (fold change)” value (kidney) was “IGF-2 ↓ x2”. For the same substance, the “IGFBP2 expression ↑ (fold change)” value (kidney) was “IGFBP2 ↑ x1.5”, the “IL-7 R precursor expression ↑ (fold change)” value (kidney) was “↑ x2” and the “IRF5 expression ↑ (fold change)” value (kidney) was “IRF5 ↑ x2”. The “Insulin receptor expression ↓ (fold change)” value (kidney) was “↓ x3”, the “K+ voltage-gated channel, Shaw-related subfamily, member 3 expression ↑ (fold change)” value (kidney) was “member 3 ↑ x2.5” and the “LIF (cholinergic differentiation factor) expression ↑ (fold change)” value (kidney) was “factor) ↑ x2”. For the same substance, the “Na+ channel, nonvoltage-gated 1, β (Liddle syndrome) expression ↓ (fold change)” value (kidney) was “↓ x2”, the “Natriuretic peptide receptor A/guanylate cyclase A (atrionatriuretic peptide receptor A) expression ↑ (fold change)” value (kidney) was “↑ x2” and the “Opioid receptor, δ1 expression ↑ (fold change)” value (kidney) was “δ1 ↑ x2.5”. For the same substance, the “PDGFR, α polypeptide expression ↑ (fold change)” value (kidney) was “polypeptide ↑ x1.5”, the “PG-endoperoxide synthase 1 (prostaglandin G/H synthase and cyclooxygenase) expression ↓ (fold change)” value (kidney) was “x3.5” and the “PI-3-kinase, catalytic, α polypeptide expression ↓ (fold change)” value (kidney) was “polypeptide ↓ x3”. For the same substance, the “PP 3 (formerly 2B), catalytic subunit, β isoform (calcineurin A β) expression ↓ (fold change)” value (kidney) was “↓ x2”, the “Putative chemokine receptor; GTP-binding protein expression ↑ (fold change)” value (kidney) was “↑ x2” and the “SSTR2 expression ↑ (fold change)” value (kidney) was “SSTR 2↑ x2”. The “SSTR 3 expression ↑ (fold change)” value (kidney) was “SSTR 3↑ x3”, the “Solute carrier family 6 (neurotransmitter transporter, creatin), member 8 expression ↓ (fold change)” value (kidney) was “member 8 ↓ x3” and the “Solute carrier family 9 (Na+/H+ exchanger) isoform 3 regulatory factor 1 expression ↑ (fold change)” value (kidney) was “↑ x2”. For the same substance, the “TGF, β1 expression ↑ (fold change)” value (kidney) was “TGF, β1 ↑ x1.5”, the “THR binding protein expression ↑ (fold change)” value (kidney) was “protein ↑x1.5” and the “THR, α (avian erythroblastic leukemia viral (v-erb-a) oncogene homolog) expression ↑ (fold change)” value (kidney) was “homolog) ↑x1.5”. For the same substance, the “THR-associated protein, 240kδ subunit expression ↓ (fold change)” value (kidney) was “subunit ↓ x1.5”, the “TNF, α-induced protein 3 expression ↓ (fold change)” value (kidney) was “↓ x1.5” and the “TNFR superfamily, member 12 expression ↑ (fold change)” value (kidney) was “member 12 ↑ x2”. For the same substance, the “VWF precursor expression ↑ (fold change)” value (kidney) was “x2”, the “Vasopressin-activated calcium-mobilizing receptor-1 expression ↓ (fold change)” value (kidney) was 1 ↓ x2 and the “δ sleep inducing peptide, immunoreactor expression ↑ (fold change)” value (kidney) was “x2.5”. The “1-PI-4-phosphate 5-kinase isoform C expression ↓ (fold change)” value (liver) was “↓ x2” and the “5-hydroxytrypt amine (serotonine) receptor 6 expression ↑ (fold change)” value (liver) was “receptor 6 ↑ x2.5”.
